The results in this text go back to US20210323976A1, “HETEROARYL COMPOUNDS FOR KINASE INHIBITION” (ARIAD Pharmaceuticals, Inc., priority 2015, published 2021).

Type in all cases: cell-based
For assay [1], the target named is T1, EGFR exon 20 ASV insertion (V769_D770insASV) (Homo sapiens, UniProt P00533, INS769ASV).
T1 construct: expressed in transfected cells; host or cells: Ba/F3 (murine pro-B) cells, lentiviral transduction with pLVX-IRES puro
The assay can be described thus: Ba/F3-EGFR-Exon20-ASV cell anti-proliferation assay (MTS, CellTiter 96 AQueous One). As to conditions: Ba/F3-EGFR-Exon20-ASV cells, 72 h, MTS signal. The source says: (§1) A compound's ability in selectively inhibiting EGFR exon 20 insertion mutations can be assessed using Ba/F3 cells, a murine pro-B cell line, which have been transduced with EGFR exon 20 insertions. An expression vector, pLVX-IRES puro (Clontech) coding for human EGFR exon 20 insertions NPG (H773_V774insNPG) or ASV (V769_D770insASV), was transfected into HEK293 cells by the Trans-Lentiviral ORF Packaging System (Thermo Scientific), to produce virus encoding EGFR exon 20 insertions. Ba/F3 (DSMZ) cells maintained in RPM11640 medium supplemented with 10% fetal bovine serum, 200 pM L-glutamine/200 µg/mL penicillin/200 µg/mL streptomycin (Life Technology) and 10 ng/mL IL-3 (R&D system), were infected by EGFR Exon20 virus and subsequently selected by puromycin (Life Technology) selection and IL-3 depletion. Ba/F3 cells expressing EGFR exon 20 insertions (named Ba/F3-EGFR-Exon20-NPG or Ba/F3-EGFR-Exon20-ASV) can proliferate in the absence of IL-3. The anti-proliferative activity of compounds were determined as follows: BaF3-EGFR-Exon20 cells (NPG or ASV) seeded in 96 well plates (2500 cells/well) were treated with test compound (dissolved in DMSO) at a series of concentrations (4-fold dilution, top concentration: 10,000 nM). The plates were incubated for 72 h in a 37° C. incubator with 5% CO2, and the number of viable cells in each well were measured indirectly by CellTiter 96® Aqueous One Solution Cell Proliferation Assay (Promega) This assay is a colorimetric method for determining the number of viable cells through measurement of their metabolic activity by detection of enzymatic conversion of tetrazolium salts into blue formazan derivatives. Reagent (20 pL) was added into each well, and the plates were returned to the incubator for 2 h. The absorbance in each well was then measured at 490 nm using an Envision plate reader (Perkin Elmer). IC50 values were calculated by determining the concentration of compound required to decrease the MTS signal by 50% comparing to the DMSO control in best-fit curves using Microsoft XLfit software or Accelrys Pipeline Pilot.

Assay [2] addresses T2, EGFR exon 19 deletion (E746-A750) and T790M mutation (Homo sapiens, UniProt P00533, DEL746-750/T790M).
T2 construct: expressed in transfected cells; host or cells: Ba/F3 (murine pro-B) cells, lentiviral transduction with pLVX-IRES puro
The assay can be described thus: Ba/F3-EGFR-Del/T790M cell anti-proliferation assay (MTS). As to conditions: Ba/F3-EGFR-Del/T790M cells, 72 h, MTS signal. The source says: A compound's ability in selectively inhibiting EGFR exon 19 deletion and T790M concurrent mutations can be assessed using Ba/F3 cells, a murine pro-B cell line, which have been transduced with EGFR exon 19 deletion and T790M mutation. An expression vector, pLVX-IRES puro (Clontech) coding for human EGFR E746-A750 deletion and T790M Mutation, was transfected into HEK293 cells by the Trans-Lentiviral ORF Packaging System (Thermo Scientific), to produce virus encoding EGFR exon 19 deletion and T790M mutations. Ba/F3 (DSMZ) cells maintained in RPM11640 medium supplemented with 10% fetal bovine serum, 200 pM L-glutamine/200 μg/mL penicillin/200 μg/mL streptomycin (Life Technology) and 10 ng/mL IL-3 (R&D system), were infected by EGFR E746-A750 deletion and T790M Mutation virus and subsequently selected by puromycin (Life Technology) selection and IL-3 depletion. Ba/F3 cells expressing EGFR E746-A750 deletion and T790M Mutation (named Ba/F3-EGFR-Del/T790M) can proliferate in the absence of IL-3. The anti-proliferative activity of compounds was determined as follows: BaF3-EGFR-Del/T790M cells seeded in 96 well plates (2500 cells/well) were treated with test compound (dissolved in DMSO) at a series of concentrations (4-fold dilution, top concentration: 10,000 nM). The plates were incubated for 72 h in a 37° C. incubator with 5% CO2, and the number of viable cells in each well were measured indirectly by CellTiter 96® Aqueous One Solution Cell Proliferation Assay (Promega; this assay is a colorimetric method for determining the number of viable cells through measurement of their metabolic activity by detection of enzymatic conversion of tetrazolium salts into blue formazan derivatives). Reagent (20 pL) was added into each well, and the plates were returned to the incubator for 2 h. The absorbance in each well was then measured at 490 nm using an Envision plate reader (Perkin Elmer). IC50 values were calculated by determining the concentration of compound required to decrease the MTS signal by 50% comparing to the DMSO control in best-fit curves using Microsoft XLfit software or Accelrys Pipeline Pilot.

For assay [3], the target named is T3, Her2 exon 20 YVMA insertion (A775_G776ins YVMA) (Homo sapiens, UniProt P04626, INS775YVMA).
T3 construct: expressed in transfected cells; host or cells: Ba/F3 (murine pro-B) cells, lentiviral transduction with pLVX-IRES puro
T3 sequence (P04626 with tags, fused parts or gaps INS775YVMA): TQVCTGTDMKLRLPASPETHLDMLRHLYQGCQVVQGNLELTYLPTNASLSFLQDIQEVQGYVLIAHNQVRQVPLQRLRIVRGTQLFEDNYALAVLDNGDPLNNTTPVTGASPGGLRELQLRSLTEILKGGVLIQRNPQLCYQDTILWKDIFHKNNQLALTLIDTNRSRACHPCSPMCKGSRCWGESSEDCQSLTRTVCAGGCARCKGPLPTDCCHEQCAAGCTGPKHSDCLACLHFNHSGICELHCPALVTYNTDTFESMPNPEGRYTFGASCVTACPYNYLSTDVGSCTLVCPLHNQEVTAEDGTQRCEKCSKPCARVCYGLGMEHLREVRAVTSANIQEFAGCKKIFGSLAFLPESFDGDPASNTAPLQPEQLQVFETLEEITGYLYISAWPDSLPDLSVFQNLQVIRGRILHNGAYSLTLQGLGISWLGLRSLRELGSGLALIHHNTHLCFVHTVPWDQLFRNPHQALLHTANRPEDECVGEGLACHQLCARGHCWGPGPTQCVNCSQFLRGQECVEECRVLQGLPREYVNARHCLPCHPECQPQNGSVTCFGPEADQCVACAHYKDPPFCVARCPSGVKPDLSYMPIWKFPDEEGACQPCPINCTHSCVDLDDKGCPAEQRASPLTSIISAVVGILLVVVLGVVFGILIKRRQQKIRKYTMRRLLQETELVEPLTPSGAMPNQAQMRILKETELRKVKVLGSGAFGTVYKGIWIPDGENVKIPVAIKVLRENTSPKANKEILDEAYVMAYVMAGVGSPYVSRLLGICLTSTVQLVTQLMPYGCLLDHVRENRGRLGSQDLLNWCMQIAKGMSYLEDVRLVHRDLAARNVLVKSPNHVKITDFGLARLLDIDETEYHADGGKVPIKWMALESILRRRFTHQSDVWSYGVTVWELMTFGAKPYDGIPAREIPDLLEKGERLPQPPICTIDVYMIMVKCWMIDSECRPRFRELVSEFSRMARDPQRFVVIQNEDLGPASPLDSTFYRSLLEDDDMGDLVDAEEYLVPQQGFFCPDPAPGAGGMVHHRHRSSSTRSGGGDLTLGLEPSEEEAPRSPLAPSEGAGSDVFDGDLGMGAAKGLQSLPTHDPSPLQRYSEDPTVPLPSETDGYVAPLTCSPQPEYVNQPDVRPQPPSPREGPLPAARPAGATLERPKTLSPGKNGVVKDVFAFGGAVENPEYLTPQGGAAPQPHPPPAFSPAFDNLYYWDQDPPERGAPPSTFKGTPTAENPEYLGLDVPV
Briefly: Ba/F3-Her2 Exon20 YVMA cell anti-proliferation assay (MTS). As to conditions: Ba/F3-Her2 Exon20 YVMA cells, 72 h, MTS signal. From the text: A compound's ability in selectively inhibiting Her2 exon 20 YVMA insertion mutations can be assessed using Ba/F3 cells, a murine pro-B cell line, which have been transduced with Her2 Exon20 YVMA insertions. An expression vector, pLVX-IRES puro (Clontech) coding for human EGFR exon 20 insertions YVMA (A775_G776ins YVMA), was transfected into HEK293 cells by the Trans-Lentiviral ORF Packaging System (Thermo Scientific), to produce virus encoding EGFR exon 20 insertions. Ba/F3 (DSMZ) cells maintained in RPM11640 medium supplemented with 10% fetal bovine serum, 200 pM L-glutamine/200 μg/mL penicillin/200 μg/mL streptomycin (Life Technology) and 10 ng/mL IL-3 (R&D system), were infected by EGFR Exon20 virus and subsequently selected by puromycin (Life Technology) selection and IL-3 depletion. Ba/F3 cells expressing Her2 Exon20 YVMA insertions (named Ba/F3-Her2 Exon20 YVMA) can proliferate in the absence of IL-3. The anti-proliferative activity of compounds was determined as follows: BaF3-Her2 Exon20 YVMA cells seeded in 96 well plates (2500 cells/well) were treated with test compound (dissolved in DMSO) at a series of concentrations (4-fold dilution, top concentration: 10,000 nM). The plates were incubated for 72 h in a 37° C. incubator with 5% CO2, and the number of viable cells in each well were measured indirectly by CellTiter 96® Aqueous One Solution Cell Proliferation Assay (Promega; this assay is a colorimetric method for determining the number of viable cells through measurement of their metabolic activity by detection of enzymatic conversion of tetrazolium salts into blue formazan derivatives). Reagent (20 pL) was added into each well, and the plates were returned to the incubator for 2 h. The absorbance in each well was then measured at 490 nm using an Envision plate reader (Perkin Elmer). IC50 values were calculated by determining the concentration of compound required to decrease the MTS signal by 50% comparing to the DMSO control in best-fit curves using Microsoft XLfit software or Accelrys Pipeline Pilot.

Assay [4] has as its target EGFR exon 20 NPG insertion (H773_V774insNPG) (Homo sapiens, UniProt P00533, cells depend on it, form not given). The assay can be described thus: Ba/F3-EGFR-Exon20-NPG cell anti-proliferation assay (MTS, CellTiter 96 AQueous One). As to conditions: 72 h, MTS signal.
From the text: as §1

Each structure is given as a SMILES string.

T1 sequence (P00533 with tags, fused parts or gaps INS769ASV): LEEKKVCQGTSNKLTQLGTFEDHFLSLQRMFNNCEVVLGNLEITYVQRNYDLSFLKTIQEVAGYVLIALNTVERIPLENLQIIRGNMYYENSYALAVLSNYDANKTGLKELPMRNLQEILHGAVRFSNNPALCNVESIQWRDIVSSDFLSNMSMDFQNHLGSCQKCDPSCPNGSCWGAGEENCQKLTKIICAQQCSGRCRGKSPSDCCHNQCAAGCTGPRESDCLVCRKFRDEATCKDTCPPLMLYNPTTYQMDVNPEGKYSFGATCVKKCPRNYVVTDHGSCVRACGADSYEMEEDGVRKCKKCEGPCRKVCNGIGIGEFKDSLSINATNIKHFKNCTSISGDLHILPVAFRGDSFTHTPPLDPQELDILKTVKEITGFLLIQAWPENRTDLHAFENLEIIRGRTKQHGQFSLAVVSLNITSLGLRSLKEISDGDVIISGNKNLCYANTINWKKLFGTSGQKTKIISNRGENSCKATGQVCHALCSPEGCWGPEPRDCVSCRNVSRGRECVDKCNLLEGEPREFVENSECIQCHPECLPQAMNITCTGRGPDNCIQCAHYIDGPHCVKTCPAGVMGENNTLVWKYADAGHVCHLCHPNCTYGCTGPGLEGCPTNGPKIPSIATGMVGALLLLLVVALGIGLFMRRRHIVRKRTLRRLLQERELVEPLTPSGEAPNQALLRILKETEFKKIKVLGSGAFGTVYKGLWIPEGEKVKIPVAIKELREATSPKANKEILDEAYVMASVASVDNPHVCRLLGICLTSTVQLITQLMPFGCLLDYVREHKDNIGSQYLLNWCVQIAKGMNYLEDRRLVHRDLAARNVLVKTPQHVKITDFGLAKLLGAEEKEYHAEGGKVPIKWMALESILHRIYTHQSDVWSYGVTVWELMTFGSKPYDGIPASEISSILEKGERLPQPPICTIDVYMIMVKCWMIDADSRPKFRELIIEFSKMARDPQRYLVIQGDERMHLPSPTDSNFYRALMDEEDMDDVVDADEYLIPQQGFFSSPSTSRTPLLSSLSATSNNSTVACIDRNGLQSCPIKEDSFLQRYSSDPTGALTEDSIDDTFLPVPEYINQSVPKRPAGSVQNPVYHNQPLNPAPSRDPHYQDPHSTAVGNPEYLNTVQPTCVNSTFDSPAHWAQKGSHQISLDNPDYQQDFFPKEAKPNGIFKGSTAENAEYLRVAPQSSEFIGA
Sequence of EGFR exon 20 NPG insertion (H773_V774insNPG) (P00533 with tags, fused parts or gaps INS772GNP, form open): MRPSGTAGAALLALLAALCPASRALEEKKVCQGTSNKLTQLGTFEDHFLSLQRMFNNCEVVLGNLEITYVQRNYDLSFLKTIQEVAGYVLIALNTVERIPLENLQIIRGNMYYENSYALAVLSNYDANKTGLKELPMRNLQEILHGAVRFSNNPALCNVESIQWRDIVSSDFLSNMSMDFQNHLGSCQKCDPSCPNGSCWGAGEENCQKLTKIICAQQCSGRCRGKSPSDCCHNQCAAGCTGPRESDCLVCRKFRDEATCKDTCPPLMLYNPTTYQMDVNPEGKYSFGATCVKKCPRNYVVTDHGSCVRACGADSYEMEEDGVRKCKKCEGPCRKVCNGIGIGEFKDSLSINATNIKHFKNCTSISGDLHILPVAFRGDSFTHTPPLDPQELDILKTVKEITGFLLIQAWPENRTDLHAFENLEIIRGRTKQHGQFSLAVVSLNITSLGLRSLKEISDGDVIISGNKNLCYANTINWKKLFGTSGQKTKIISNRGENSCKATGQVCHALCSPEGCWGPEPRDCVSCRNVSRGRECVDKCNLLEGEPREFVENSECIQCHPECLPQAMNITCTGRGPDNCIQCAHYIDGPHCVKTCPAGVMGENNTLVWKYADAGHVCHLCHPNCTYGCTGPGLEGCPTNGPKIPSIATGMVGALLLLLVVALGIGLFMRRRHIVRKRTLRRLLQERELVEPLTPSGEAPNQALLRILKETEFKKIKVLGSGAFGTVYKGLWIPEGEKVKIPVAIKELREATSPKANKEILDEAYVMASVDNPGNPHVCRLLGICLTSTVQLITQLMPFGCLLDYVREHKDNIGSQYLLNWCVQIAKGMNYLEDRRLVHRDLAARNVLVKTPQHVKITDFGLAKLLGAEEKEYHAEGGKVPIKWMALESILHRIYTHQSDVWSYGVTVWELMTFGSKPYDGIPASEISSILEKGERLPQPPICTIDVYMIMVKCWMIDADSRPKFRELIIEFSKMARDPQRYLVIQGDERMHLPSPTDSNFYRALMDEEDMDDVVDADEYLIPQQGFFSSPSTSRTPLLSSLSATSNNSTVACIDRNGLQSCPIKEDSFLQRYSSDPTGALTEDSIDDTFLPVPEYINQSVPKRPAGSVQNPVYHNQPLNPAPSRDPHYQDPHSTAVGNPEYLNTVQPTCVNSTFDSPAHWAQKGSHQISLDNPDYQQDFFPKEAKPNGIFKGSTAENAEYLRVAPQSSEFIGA
T2 sequence (P00533 with tags, fused parts or gaps DEL746-750/T790M): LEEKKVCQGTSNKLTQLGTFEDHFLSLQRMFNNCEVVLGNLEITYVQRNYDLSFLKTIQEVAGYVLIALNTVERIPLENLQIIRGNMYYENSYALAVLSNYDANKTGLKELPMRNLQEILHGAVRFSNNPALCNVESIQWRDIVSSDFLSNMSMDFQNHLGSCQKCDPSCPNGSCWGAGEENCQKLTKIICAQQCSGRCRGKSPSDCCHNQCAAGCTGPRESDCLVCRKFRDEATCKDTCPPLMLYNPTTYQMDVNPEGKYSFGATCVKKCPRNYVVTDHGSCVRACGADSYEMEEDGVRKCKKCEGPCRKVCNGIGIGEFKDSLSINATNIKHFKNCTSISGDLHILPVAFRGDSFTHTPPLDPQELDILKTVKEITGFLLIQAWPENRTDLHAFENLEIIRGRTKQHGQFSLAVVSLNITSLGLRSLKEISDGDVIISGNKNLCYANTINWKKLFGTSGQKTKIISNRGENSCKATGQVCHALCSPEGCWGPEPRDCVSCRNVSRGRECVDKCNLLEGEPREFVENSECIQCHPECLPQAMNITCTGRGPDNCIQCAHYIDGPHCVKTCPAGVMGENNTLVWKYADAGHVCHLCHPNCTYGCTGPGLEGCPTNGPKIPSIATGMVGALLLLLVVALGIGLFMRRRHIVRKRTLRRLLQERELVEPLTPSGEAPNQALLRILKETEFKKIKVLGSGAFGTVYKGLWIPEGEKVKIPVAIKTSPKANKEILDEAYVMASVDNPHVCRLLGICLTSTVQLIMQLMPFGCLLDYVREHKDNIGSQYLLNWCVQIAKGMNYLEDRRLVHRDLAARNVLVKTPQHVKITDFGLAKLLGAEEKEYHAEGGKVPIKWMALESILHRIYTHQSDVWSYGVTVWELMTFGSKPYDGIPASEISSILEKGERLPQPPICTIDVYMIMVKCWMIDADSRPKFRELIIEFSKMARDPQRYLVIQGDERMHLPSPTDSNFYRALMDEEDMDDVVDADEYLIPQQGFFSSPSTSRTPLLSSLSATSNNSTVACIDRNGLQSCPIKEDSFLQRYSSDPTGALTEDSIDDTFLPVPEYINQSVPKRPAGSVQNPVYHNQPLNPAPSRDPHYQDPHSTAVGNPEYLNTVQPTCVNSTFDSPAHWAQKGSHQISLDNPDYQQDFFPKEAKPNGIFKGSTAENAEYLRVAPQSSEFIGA

As for `C=CC(=O)Nc1cc(Nc2ncc(C#N)c(-c3c4n(c5ccccc35)CCOC4)n2)c(OC)cc1N(C)CCN(C)C` [Example 8, N-(5-((5-cyano-4-(3,4-dihydro-1H-[1,4]oxazino[4,3-a]indol-10-yl)pyrimidin-2-yl)amino)-2-((2-(dimethylamino)ethyl)(methyl)amino)-4-methoxyphenyl)acrylamide], the IC50 (commonly the concentration that gives 50% inhibition) in assay [1] was 100 to 500 nM; in assay [3] it was 100 to 500 nM; in assay [4] it was less than 100 nM. For the same compound, the “EGFR exon 19 deletion and T790M mutation IC50” value in assay [2] is “A (Group A compounds have an IC50 value for the indicated mutant below about 100 nM)”.

`C=CC(=O)Nc1cc(Nc2ncc(Cl)c(-c3c4n(c5ccccc35)CCOC4)n2)c(OC)cc1N(C)CCN(C)C` [Example 9, N-(5-((5-chloro-4-(3,4-dihydro-1H-[1,4]oxazino[4,3-a]indol-10-yl)pyrimidin-2-yl)amino)-2-((2-(dimethylamino)ethyl)(methyl)amino)-4-methoxyphenyl)acrylamide]: the IC50 is greater than 1000 nM in assay [1], greater than 1000 nM in assay [3] and 500 to 1000 nM in assay [4]. For the same compound, in assay [2], the “EGFR exon 19 deletion and T790M mutation IC50” value was “A (Group A compounds have an IC50 value for the indicated mutant below about 100 nM)”.
